In article PMC6219668 (Oncotarget, 2018):

Test system: panel of nearly 500 cancer cell lines
Assay: Cancer Cell Line Encyclopedia profiling, 3-day CellTiter-Glo
Assay type: cell-based
Set-up: Amax: unit not given here

Structure (SMILES): CC(=O)c1c(C)c2cnc(Nc3ccc(N4CCNCC4)cn3)nc2n(C2CCCC2)c1=O [Palbociclib, reference compound]
- Amax (769p (kidney)): -52.63
- Amax (8305c (thyroid)): -51.0145
- Amax (8505c (thyroid)): -0.08134
- EC50 (COV318): > 8 µM
- EC50 (COV504): > 8 µM
- EC50 (GLC82): 0.00254 µM
- EC50 (HCC15): > 8 µM
- EC50 (HEC-251): > 8 µM
- EC50 (HEY A8): 0.947 µM
- EC50 (Homo sapiens, 22Rv1): 1.22 µM
- EC50 (Homo sapiens, 639-V): > 8 µM
- EC50 (Homo sapiens, 769-P): > 8 µM
- EC50 (Homo sapiens, 8305C): 0.576 µM
- EC50 (Homo sapiens, 8505C): > 8 µM
- EC50 (Homo sapiens, A 172): > 8 µM
- EC50 (Homo sapiens, A204): 0.407 µM
- EC50 (Homo sapiens, A253): > 8 µM
- EC50 (Homo sapiens, A549): 1.14 µM
- EC50 (Homo sapiens, A673): > 8 µM
- EC50 (Homo sapiens, A2058): > 8 µM
- EC50 (Homo sapiens, A2780): 1.9 µM
- EC50 (Homo sapiens, A-375): 2.72 µM
- EC50 (Homo sapiens, AMO1): > 8 µM
- EC50 (Homo sapiens, AN3-CA): 5.91 µM
- EC50 (Homo sapiens, ASPC1): > 8 µM
- EC50 (Homo sapiens, AU565): 0.993 µM
- EC50 (Homo sapiens, AZ-521): > 8 µM
- EC50 (Homo sapiens, BFTC-909): > 8 µM
- EC50 (Homo sapiens, BGC-823): > 8 µM
- EC50 (Homo sapiens, BL-41): > 8 µM
- EC50 (Homo sapiens, BT-20): > 8 µM
- EC50 (Homo sapiens, BT-474): 2.09 µM
- EC50 (Homo sapiens, BT-549): > 8 µM
- EC50 (Homo sapiens, C2BBe1): 1.73 µM
- EC50 (Homo sapiens, CAKI-2): > 8 µM
- EC50 (Homo sapiens, CAL-27): > 8 µM
- EC50 (Homo sapiens, CAL-85-1): > 8 µM
- EC50 (Homo sapiens, CAMA-1): > 8 µM
- EC50 (Homo sapiens, CHL-1): > 8 µM
- EC50 (Homo sapiens, COLO 201): 0.989 µM
- EC50 (Homo sapiens, COLO 205): 1.71 µM
- EC50 (Homo sapiens, COLO 320): > 8 µM
- EC50 (Homo sapiens, COLO-679): > 8 µM
- EC50 (Homo sapiens, COR-L23): > 8 µM
- EC50 (Homo sapiens, Calu-1): > 8 µM
- EC50 (Homo sapiens, Calu-3): > 8 µM
- EC50 (Homo sapiens, Capan-2): > 8 µM
- EC50 (Homo sapiens, DBTRG-05MG): > 8 µM
- EC50 (Homo sapiens, DMS-114): 0.957 µM
- EC50 (Homo sapiens, DOV13): > 8 µM
- EC50 (Homo sapiens, DU-145): > 8 µM
- EC50 (Homo sapiens, Daoy): > 8 µM
- EC50 (Homo sapiens, Detroit 562): 1.94 µM
- EC50 (Homo sapiens, EBC-1): 0.242 µM
- EC50 (Homo sapiens, EFE-184): > 8 µM
- EC50 (Homo sapiens, EFM-19): 0.565 µM
- EC50 (Homo sapiens, EFO-21): > 8 µM
- EC50 (Homo sapiens, EFO-27): > 8 µM
- EC50 (Homo sapiens, FaDu): 2.3 µM
- EC50 (Homo sapiens, G-361): > 8 µM
- EC50 (Homo sapiens, G-401): 0.644 µM
- EC50 (Homo sapiens, GCIY): > 8 µM
- EC50 (Homo sapiens, GMS-10): 2.8 µM
- EC50 (Homo sapiens, HCC70): > 8 µM
- EC50 (Homo sapiens, HCC78): > 8 µM
- EC50 (Homo sapiens, HCC1187): > 8 µM
- EC50 (Homo sapiens, HCC1569): > 8 µM
- EC50 (Homo sapiens, HCC1806): > 8 µM
- EC50 (Homo sapiens, HCC1954): 0.597 µM
- EC50 (Homo sapiens, HCC2935): > 8 µM
- EC50 (Homo sapiens, HCC4006): 0.73 µM
- EC50 (Homo sapiens, HCT-15): > 8 µM
- EC50 (Homo sapiens, HCT-116): > 8 µM
- EC50 (Homo sapiens, HEC-1-A): 0.764 µM
- EC50 (Homo sapiens, HEC-1B): 2.77 µM
- EC50 (Homo sapiens, HEL 92.1.7): > 8 µM
- EC50 (Homo sapiens, HGC-27): 0.539 µM
- EC50 (Homo sapiens, HMCB): > 8 µM
- EC50 (Homo sapiens, HPAC): 0.69 µM
- EC50 (Homo sapiens, HSC-2): > 8 µM
- EC50 (Homo sapiens, HT1197): > 8 µM
- EC50 (Homo sapiens, HT-29): 0.557 µM
- EC50 (Homo sapiens, HT-144): > 8 µM
- EC50 (Homo sapiens, HT-1080): > 8 µM
- EC50 (Homo sapiens, HT-1376): > 8 µM
- EC50 (Homo sapiens, HepG2): 0.819 µM
- EC50 (Homo sapiens, Hs 294T): > 8 µM
- EC50 (Homo sapiens, Hs 683): 3.62 µM
- EC50 (Homo sapiens, Hs 695T): > 8 µM
- EC50 (Homo sapiens, Hs746T): 0.231 µM
- EC50 (Homo sapiens, Hs-578T): > 8 µM
- EC50 (Homo sapiens, HuCCT-1): > 8 µM
- EC50 (Homo sapiens, HuH-1): 1.38 µM
- EC50 (Homo sapiens, HuP-T3): 1.91 µM
- EC50 (Homo sapiens, HuP-T4): > 8 µM
- EC50 (Homo sapiens, HuT78): > 8 µM
- EC50 (Homo sapiens, IGR-37): > 8 µM
- EC50 (Homo sapiens, IGROV-1): > 8 µM
- EC50 (Homo sapiens, IMR-32): 0.69 µM
- EC50 (Homo sapiens, IPC-298): > 8 µM
- EC50 (Homo sapiens, KALS-1): > 8 µM
- EC50 (Homo sapiens, KARPAS-299): > 8 µM
- EC50 (Homo sapiens, KARPAS-422): > 8 µM
- EC50 (Homo sapiens, KMS-12-BM): > 8 µM
- EC50 (Homo sapiens, KNS-42): > 8 µM
- EC50 (Homo sapiens, KU812): > 8 µM
- EC50 (Homo sapiens, KYSE-30): > 8 µM
- EC50 (Homo sapiens, KYSE-410): > 8 µM
- EC50 (Homo sapiens, KYSE-520): > 8 µM
- EC50 (Homo sapiens, L-363): 0.804 µM
- EC50 (Homo sapiens, LCLC-103H): > 8 µM
- EC50 (Homo sapiens, LN-18): > 8 µM
- EC50 (Homo sapiens, LN-229): 1.48 µM
- EC50 (Homo sapiens, LOX IMVI): > 8 µM
- EC50 (Homo sapiens, LS-123): > 8 µM
- EC50 (Homo sapiens, LS-513): > 8 µM
- EC50 (Homo sapiens, Lu-99): 1 µM
- EC50 (Homo sapiens, M059J): > 8 µM
- EC50 (Homo sapiens, MC116): > 8 µM
- EC50 (Homo sapiens, MCF7): > 8 µM
- EC50 (Homo sapiens, MDA-MB-157): > 8 µM
- EC50 (Homo sapiens, MDA-MB-175-VII): > 8 µM
- EC50 (Homo sapiens, MDA-MB-415): 6.74 µM
- EC50 (Homo sapiens, MDA-MB-436): > 8 µM
- EC50 (Homo sapiens, MDA-MB-453): 3.41 µM
- EC50 (Homo sapiens, MDA-MB-468): > 8 µM
- EC50 (Homo sapiens, MEG-01): > 8 µM
- EC50 (Homo sapiens, MES-SA): 0.795 µM
- EC50 (Homo sapiens, MFE-280): > 8 µM
- EC50 (Homo sapiens, MG-63): 0.532 µM
- EC50 (Homo sapiens, MIA PaCa-2): > 8 µM
- EC50 (Homo sapiens, MINO): 0.489 µM
- EC50 (Homo sapiens, MKN-7): > 8 µM
- EC50 (Homo sapiens, MKN-45): > 8 µM
- EC50 (Homo sapiens, MKN-74): > 8 µM
- EC50 (Homo sapiens, MSTO-211H): > 8 µM
- EC50 (Homo sapiens, Malme-3M): 0.714 µM
- EC50 (Homo sapiens, NCI-H23): > 8 µM
- EC50 (Homo sapiens, NCI-H28): 1.98 µM
- EC50 (Homo sapiens, NCI-H211): 0.877 µM
- EC50 (Homo sapiens, NCI-H226): > 8 µM
- EC50 (Homo sapiens, NCI-H358): 1.49 µM
- EC50 (Homo sapiens, NCI-H441): 1.35 µM
- EC50 (Homo sapiens, NCI-H520): 0.706 µM
- EC50 (Homo sapiens, NCI-H522): > 8 µM
- EC50 (Homo sapiens, NCI-H647): > 8 µM
- EC50 (Homo sapiens, NCI-H650): > 8 µM
- EC50 (Homo sapiens, NCI-H661): > 8 µM
- EC50 (Homo sapiens, NCI-H727): > 8 µM
- EC50 (Homo sapiens, NCI-H747): 3.94 µM
- EC50 (Homo sapiens, NCI-H810): > 8 µM
- EC50 (Homo sapiens, NCI-H1048): > 8 µM
- EC50 (Homo sapiens, NCI-H1092): > 8 µM
- EC50 (Homo sapiens, NCI-H1355): 1.06 µM
- EC50 (Homo sapiens, NCI-H1373): > 8 µM
- EC50 (Homo sapiens, NCI-H1563): > 8 µM
- EC50 (Homo sapiens, NCI-H1573): 1.03 µM
- EC50 (Homo sapiens, NCI-H1581): > 8 µM
- EC50 (Homo sapiens, NCI-H1648): > 8 µM
- EC50 (Homo sapiens, NCI-H1650): 2.37 µM
- EC50 (Homo sapiens, NCI-H1651): 2.52 µM
- EC50 (Homo sapiens, NCI-H1666): > 8 µM
- EC50 (Homo sapiens, NCI-H1693): > 8 µM
- EC50 (Homo sapiens, NCI-H1694): > 8 µM
- EC50 (Homo sapiens, NCI-H1792): 1.5 µM
- EC50 (Homo sapiens, NCI-H1793): 0.881 µM
- EC50 (Homo sapiens, NCI-H1944): 2.85 µM
- EC50 (Homo sapiens, NCI-H1975): > 8 µM
- EC50 (Homo sapiens, NCI-H2009): > 8 µM
- EC50 (Homo sapiens, NCI-H2030): > 8 µM
- EC50 (Homo sapiens, NCI-H2052): 0.528 µM
- EC50 (Homo sapiens, NCI-H2087): 0.238 µM
- EC50 (Homo sapiens, NCI-H2122): 0.167 µM
- EC50 (Homo sapiens, NCI-H2170): 1.54 µM
- EC50 (Homo sapiens, NCI-H2228): > 8 µM
- EC50 (Homo sapiens, NCI-H2444): > 8 µM
- EC50 (Homo sapiens, NCI-H2452): > 8 µM
- EC50 (Homo sapiens, NCI-H3255): > 8 µM
- EC50 (Homo sapiens, NCI-N87): > 8 µM
- EC50 (Homo sapiens, NUGC-3): 0.178 µM
- EC50 (Homo sapiens, NUGC-4): 0.715 µM
- EC50 (Homo sapiens, OC-314): > 8 µM
- EC50 (Homo sapiens, OCI-AML2): 1.18 µM
- EC50 (Homo sapiens, OE33): 2.02 µM
- EC50 (Homo sapiens, ONS-76): 1.36 µM
- EC50 (Homo sapiens, OV-90): > 8 µM
- EC50 (Homo sapiens, OVCAR-3): > 8 µM
- EC50 (Homo sapiens, OVCAR-4): > 8 µM
- EC50 (Homo sapiens, OVCAR-8): > 8 µM
- EC50 (Homo sapiens, OVSAHO): 0.613 µM
